Data on one molecule can be found in patent US12565467B2, “Compounds, compositions, and methods for the treatment of inflammatory, degenerative, and neurodegenerative diseases” (Board of Supervisors of Louisiana State University and …, priority 2015, dated 2026).

Format in all cases: cell-based, human
In assay [1] the test system is Bim. The assay is described as follows: Bim protein in ARPE-19 cells under oxidative stress. The conditions noted are these: ARPE-19 cells under stress. The source says:
FIG. 7. (A) VLC-PUFA and ELV1 and ELV2 compounds mediated downregulation of Bim in ARPE-19 cells under stress. Bim, another class of Bcl2 family, has been tested like Bid in this figure to confirm our previous results. VLC-PUFA and elovanoids protected against the upregulation of Bim by OS, similar to Bid, in RPE cells under stress. (B) VLC-PUFA and elovanoids mediated effect on Bim downregulation in ARPE-19 cells under stress.
FIG. 7—A) VLC-PUFA and ELV1 and ELV2 compounds mediated […] of Bim in ARPE-19 cells under stress. Bim, another class of Bcl2 family, has been tested like Bid in this figure to confirm our previous results. VLC-PUFA and elovanoids protected the upregulation of Bim by OS, similar to Bid, in RPE cells under stress. (B) VLC-PUFA and elovanoids mediated effect on Bim upregulation in ARPE-19 cells under stress.

The test system of assay [2] is Bax. The assay is described as follows: Bax expression in LOX-D RPE cells under oxidative stress. The protocol: (§1) FIG. 8. (A) Bcl-xL-upregulation by elovanoids ELV1 and ELV2 in ARPE-19 cells under stress. Bcl-xL is the antiapoptotic Bcl2 family protein. Like proapoptotic proteins Bid and Bim, the effect of elovaniod precursors on the antiapoptotic protein Bcl-xL was tested in this figure in RPE cells under OS. […] (B) Effect of NPD1, ELV1 and ELV2 on Bax expression in LOX-D cells under stress. Proapoptotic Bax was tested in this figure. […] C) VLC-PUFA and elovanoids ELV1 and ELV2 mediated effect on Bax upregulation in ARPE-19 cells under stress. In this experiment, elovanoid precursors along with VLC-PUFA were tested on the downregulation of the Bax protein in RPE cells under stress.
as §1, with “8—(A)” for “8. (A)”

The subject of assay [3] is Bcl-xL. The assay is described as follows: Bcl-xL protein in ARPE-19 cells under oxidative stress. As to conditions: ARPE-19 cells under OS. As for the experimental part: as §1
as §1, with “8—(A)” for “8. (A)”

In assay [4] the test system is Bid. Briefly: Bid protein by western blot in ARPE-19 cells under oxidative stress. The source says: FIG. 6. (A) VLC-PUFA and elovanoids ELV1 and ELV2 mediated effect on Bid upregulation in ARPE-19 cells under stress. […] (B) VLC-PUFA and ELV1 and ELV2 compounds mediated upregulation of Bid in ARPE-19 cells under stress.
FIG. 6—(A) VLC-PUFA and elovanoids ELV1 and ELV2 mediated effect on Bid upregulation in ARPE-19 cells under stress. […] (B) VLC-PUFA and ELV1 and ELV2 compounds mediated upregulation of Bid in ARPE-19 cells under stress.

Take `CC/C=C\C[C@H](O)\C=C/C=C/C=C/[C@H](O)C/C=C\C/C=C\CCCCCCCCCCCCCCC(=O)O` [ELV2, (16Z,19Z,22R,23E,25E,27Z,29S,31Z)-22,29-dihydroxytetratriaconta-16,19,23,25,27,31-hexaenoic acid]: the “effect on Bim upregulation by OS (FIG. 7)” value in assay [1] is reported as “potent downregulation”. Moreover, the “effect on Bax upregulation by OS (FIG. 8B)” value in assay [2] is on record as “potent downregulation”. The “effect on antiapoptotic Bcl-xL protein (FIG. 8A)” value in assay [3] is recorded as “potent upregulation”. Besides, the “effect on Bid protein upregulated by OS (FIG. 6)” value in assay [4] is reported as “potent downregulation”.
